# Where “and” joins values, the source holds several entries; their conditions need not be identical. Equal entries are not always repeated. Where two headings read alike, the source gives them in different places.
# Molecular target: recombinant RSV L+P (Human respiratory syncytial virus A, UniProt P28887)
# Assay: Primed single nucleotide incorporation (SNI) gel assay, recombinant RSV L+P
# Format: biochemical, Human RSV (strain A2)
# Settings: for pGCG formation, % inhbition / pGCGA formation, % inhbition / pGCGAA formation, % inhbition: le-11, +3 site
# Protocol: RNA polymerase reaction samples consisted of 0.2 μM recombinant RSV L-P polymerase, 0.2 μM of an RNA template (Le11 or Tr14), and 400 μM of a short primer (sequences as indicated in the figures), mixed in a buffer containing 50 mM Tris pH 7.4, 2 mM dithiothreitol and 6 mM MgCl2. For the assay in Fig. 1d, reactions were started by adding 100 nM [α-^32P]GTP (3000 Ci/mmol) tracer and incubated at 30 °C for 10 min. […] Reactions were stopped by adding an equal volume of gel loading buffer containing 90% formamide, 50 mM EDTA, 0.05% Xylene Cyanol, and Bromophenol Blue. Samples were denatured at 95 °C for 5 min and run on a 22.5% polyacrylamide urea sequencing gel at 80 W. The gel was transferred onto a Whatman cellulose chromatography paper (Millipore Sigma) and dried on a gel dryer (Bio-Rad) for 1 h. The dried gel was exposed to a phosphor-screen, scanned on a Typhoon phosphorimager (GE Healthcare), and quantified using ImageQuant (GE Healthcare).
# [1] = le-11, +1 site, 1 uM, replicates, 1 µM
# [2] = tr-14, +1 site, 0.00390625 uM, replicates, 0.00390625 µM
# [3] = tr-14, +1 site, 0.0078125 uM, replicates, 0.0078125 µM
# [4] = tr-14, +1 site, 0.015625 uM, replicates, 0.015625 µM
# [5] = tr-14, +1 site, 0.03125 uM, replicates, 0.03125 µM
# [6] = tr-14, +1 site, 0.0625 uM, replicates, 0.0625 µM
# [7] = tr-14, +1 site, 0.125 uM, replicates, 0.125 µM
# [8] = tr-14, +1 site, 0.25 uM, replicates, 0.25 µM
# [9] = tr-14, +1 site, 0.5 uM, replicates, 0.5 µM
# [10] = tr-14, +1 site, 1 uM, replicates, 1 µM
# Sequence of recombinant RSV L+P (P28887 whole entry): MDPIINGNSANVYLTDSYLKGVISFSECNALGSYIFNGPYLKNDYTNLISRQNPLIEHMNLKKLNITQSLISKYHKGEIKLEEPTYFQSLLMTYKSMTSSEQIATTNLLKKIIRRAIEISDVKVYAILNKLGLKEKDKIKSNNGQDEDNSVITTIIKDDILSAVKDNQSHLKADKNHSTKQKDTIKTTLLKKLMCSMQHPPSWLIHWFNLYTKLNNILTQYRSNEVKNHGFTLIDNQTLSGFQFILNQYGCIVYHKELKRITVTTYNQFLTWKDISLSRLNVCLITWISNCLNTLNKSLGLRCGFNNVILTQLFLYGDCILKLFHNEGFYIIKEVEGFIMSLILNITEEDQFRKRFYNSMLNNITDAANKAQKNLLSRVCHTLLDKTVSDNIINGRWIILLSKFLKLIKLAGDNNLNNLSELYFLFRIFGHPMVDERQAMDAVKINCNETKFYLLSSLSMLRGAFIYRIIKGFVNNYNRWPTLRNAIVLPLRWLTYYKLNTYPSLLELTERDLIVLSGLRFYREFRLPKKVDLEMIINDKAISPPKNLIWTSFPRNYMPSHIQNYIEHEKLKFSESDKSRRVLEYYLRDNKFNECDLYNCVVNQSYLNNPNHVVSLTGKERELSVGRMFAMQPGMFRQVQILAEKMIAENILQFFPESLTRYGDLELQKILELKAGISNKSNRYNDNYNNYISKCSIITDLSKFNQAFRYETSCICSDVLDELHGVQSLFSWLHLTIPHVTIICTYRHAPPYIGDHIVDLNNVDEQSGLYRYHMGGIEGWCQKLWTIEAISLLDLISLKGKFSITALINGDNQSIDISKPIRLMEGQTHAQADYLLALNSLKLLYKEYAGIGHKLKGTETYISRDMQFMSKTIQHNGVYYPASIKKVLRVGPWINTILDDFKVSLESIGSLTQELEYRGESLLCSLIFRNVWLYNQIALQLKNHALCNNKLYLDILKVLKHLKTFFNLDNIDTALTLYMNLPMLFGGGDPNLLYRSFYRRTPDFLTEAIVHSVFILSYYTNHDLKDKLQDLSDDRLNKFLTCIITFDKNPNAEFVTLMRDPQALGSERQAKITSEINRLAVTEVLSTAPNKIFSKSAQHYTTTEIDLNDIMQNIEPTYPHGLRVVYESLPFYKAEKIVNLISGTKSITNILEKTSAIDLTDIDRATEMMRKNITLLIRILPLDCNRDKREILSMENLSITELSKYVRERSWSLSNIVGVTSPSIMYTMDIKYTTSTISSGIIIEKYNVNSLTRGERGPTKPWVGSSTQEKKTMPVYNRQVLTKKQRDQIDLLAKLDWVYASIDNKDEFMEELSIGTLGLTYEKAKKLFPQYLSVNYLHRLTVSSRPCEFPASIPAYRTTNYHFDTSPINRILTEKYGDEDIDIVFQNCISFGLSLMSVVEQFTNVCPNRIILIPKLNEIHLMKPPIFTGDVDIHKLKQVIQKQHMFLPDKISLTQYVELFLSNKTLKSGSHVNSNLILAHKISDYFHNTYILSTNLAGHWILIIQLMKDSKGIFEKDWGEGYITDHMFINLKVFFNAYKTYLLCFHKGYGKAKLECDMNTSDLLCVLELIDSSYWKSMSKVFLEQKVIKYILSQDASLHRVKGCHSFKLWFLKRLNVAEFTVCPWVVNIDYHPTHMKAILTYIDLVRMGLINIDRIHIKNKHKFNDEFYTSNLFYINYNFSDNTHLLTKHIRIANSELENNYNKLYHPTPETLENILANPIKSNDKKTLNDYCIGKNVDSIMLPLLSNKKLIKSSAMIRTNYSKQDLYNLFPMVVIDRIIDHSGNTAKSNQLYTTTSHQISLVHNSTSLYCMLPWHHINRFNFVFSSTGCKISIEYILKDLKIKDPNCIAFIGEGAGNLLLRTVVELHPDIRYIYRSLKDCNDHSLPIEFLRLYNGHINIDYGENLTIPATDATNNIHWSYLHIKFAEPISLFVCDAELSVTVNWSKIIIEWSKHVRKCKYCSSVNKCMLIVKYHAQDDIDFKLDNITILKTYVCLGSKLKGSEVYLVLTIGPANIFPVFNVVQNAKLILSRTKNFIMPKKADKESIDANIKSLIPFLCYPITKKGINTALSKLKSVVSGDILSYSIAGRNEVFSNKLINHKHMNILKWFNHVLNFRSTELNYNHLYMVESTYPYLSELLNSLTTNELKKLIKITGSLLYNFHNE
# Sequence of recombinant RSV L+P (P03421 whole entry, further chain): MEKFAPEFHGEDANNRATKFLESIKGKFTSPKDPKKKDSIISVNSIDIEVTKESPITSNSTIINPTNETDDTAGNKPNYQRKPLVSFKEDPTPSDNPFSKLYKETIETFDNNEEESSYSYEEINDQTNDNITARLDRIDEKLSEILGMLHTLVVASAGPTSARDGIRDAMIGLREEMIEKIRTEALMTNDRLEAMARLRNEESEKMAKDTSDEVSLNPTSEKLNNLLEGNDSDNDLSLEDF
structure (smiles),measurement,setting,value
COc1cc(C(=O)NC[C@](O)(c2cc(C(C)(C)O)c(F)c(-c3ccc(F)cc3)n2)C(F)(F)F)cc2cc(C)nnc12 [JNJ-8003],inhibition at 0.5 µM,"le-11, +1 site, 0.5 uM, replicates, read-out: pACG formation, % inhibition",92.2%
same,inhibition at 0.5 µM,"le-11, +1 site, 0.5 uM, replicates, read-out: pACGC formation, % inhibition",16.5%
same,inhibition at 0.5 µM,"le-11, +1 site, 0.5 uM, replicates, read-out: pACGCG formation, % inhibition",92%
same,"pACG formation, % inhibition",[1],87.3809%
same,"pACGCG formation, % inhibition",[1],94.5412%
same,inhibition at 1 µM,"le-11, +1 site, 1 uM, replicates, read-out: pACG formation, % inhibition",92.2%
same,inhibition at 1 µM,"le-11, +1 site, 1 uM, replicates, read-out: pACGC formation, % inhibition",32.4%
same,inhibition at 1 µM,"le-11, +1 site, 1 uM, replicates, read-out: pACGCG formation, % inhibition",96.1%
same,"pGCG formation, % inhbition","0.00390625 uM, replicates",23.7355% and 15.5622%
same,"pGCGA formation, % inhbition","0.00390625 uM, replicates",16.5629% and 19.135%
same,"pGCGAA formation, % inhbition","0.00390625 uM, replicates",30.4505% and 24.1004%
same,"pGCG formation, % inhbition","0.0078125 uM, replicates",29.8775% and 21.4895%
same,"pGCGA formation, % inhbition","0.0078125 uM, replicates",17.4928% and 21.885%
same,"pGCGAA formation, % inhbition","0.0078125 uM, replicates",52.8128% and 27.8666%
same,"pGCG formation, % inhbition","0.015625 uM, replicates",50.6818% and 35.2042%
same,"pGCGA formation, % inhbition","0.015625 uM, replicates",18.8117% and 25.399%
same,"pGCGAA formation, % inhbition","0.015625 uM, replicates",51.4133% and 43.0842%
same,"pGCG formation, % inhbition","0.03125 uM, replicates",80.9404% and 57.9787%
same,"pGCGA formation, % inhbition","0.03125 uM, replicates",58.0899% and 36.3323%
same,"pGCGAA formation, % inhbition","0.03125 uM, replicates",92.0704% and 68.8528%
same,"pGCG formation, % inhbition","0.0625 uM, replicates",96.7556% and 96.0463%
same,"pGCGA formation, % inhbition","0.0625 uM, replicates",77.4419% and 86.4681%
same,"pGCGAA formation, % inhbition","0.0625 uM, replicates",98.2035% and 97.0821%
same,"pGCG formation, % inhbition","0.125 uM, replicates",97.7751% and 97.5727%
same,"pGCGA formation, % inhbition","0.125 uM, replicates",83.7601% and 82.1258%
same,"pGCGAA formation, % inhbition","0.125 uM, replicates",98.5207% and 97.9021%
same,"pGCG formation, % inhbition","0.25 uM, replicates",97.8446% and 96.8207%
same,"pGCGA formation, % inhbition","0.25 uM, replicates",81.8016% and 75.4758%
same,"pGCGAA formation, % inhbition","0.25 uM, replicates",98.388% and 97.2094%
same,"pGCG formation, % inhbition","0.5 uM, replicates",96.68% and 97.1903%
same,"pGCGA formation, % inhbition","0.5 uM, replicates",77.4429% and 81.101%
same,"pGCGAA formation, % inhbition","0.5 uM, replicates",98.095% and 97.9035%
same,"pGCG formation, % inhbition","1 uM, replicates",97.6913% and 97.6125%
same,"pGCGA formation, % inhbition","1 uM, replicates",86.6689% and 82.9875%
same,"pGCGAA formation, % inhbition","1 uM, replicates",98.8723% and 98.1005%
same,IC50,"le-11 and tr-14 templates, +1 and +3 site, read-out: IC50 values in the SNI assays",17 to 32 nM
same,"pACG formation, % inhibition",[2],31.6%
same,"pACGAG formation, % inhibition",[2],12.8614% and 26.6827%
same,inhibition at 0.00390625 µM,"tr-14, +1 site, 0.00390625 uM, replicates, read-out: pACG formation, % inhibition",28.1%
same,"pACG formation, % inhibition",[3],29.3%
same,"pACGAG formation, % inhibition",[3],35.8415%
same,inhibition at 0.0078125 µM,"tr-14, +1 site, 0.0078125 uM, replicates, read-out: pACG formation, % inhibition",41.6%
same,inhibition at 0.0078125 µM,"tr-14, +1 site, 0.0078125 uM, replicates, read-out: pACGAG formation, % inhibition",21.3%
same,"pACG formation, % inhibition",[4],48.5%
same,"pACGAG formation, % inhibition",[4],57.7598%
same,inhibition at 0.015625 µM,"tr-14, +1 site, 0.015625 uM, replicates, read-out: pACG formation, % inhibition",62.7%
same,inhibition at 0.015625 µM,"tr-14, +1 site, 0.015625 uM, replicates, read-out: pACGAG formation, % inhibition",50.6%
same,"pACG formation, % inhibition",[5],79.8%
same,"pACGAG formation, % inhibition",[5],90.4225%
same,inhibition at 0.03125 µM,"tr-14, +1 site, 0.03125 uM, replicates, read-out: pACG formation, % inhibition",93.9%
same,inhibition at 0.03125 µM,"tr-14, +1 site, 0.03125 uM, replicates, read-out: pACGA formation, % inhibition",19.2%
same,inhibition at 0.03125 µM,"tr-14, +1 site, 0.03125 uM, replicates, read-out: pACGAG formation, % inhibition",92.2%
same,"pACG formation, % inhibition",[6],93.7%
same,"pACGAG formation, % inhibition",[6],96.2948%
same,inhibition at 0.0625 µM,"tr-14, +1 site, 0.0625 uM, replicates, read-out: pACG formation, % inhibition",95.6%
same,inhibition at 0.0625 µM,"tr-14, +1 site, 0.0625 uM, replicates, read-out: pACGA formation, % inhibition",23%
same,inhibition at 0.0625 µM,"tr-14, +1 site, 0.0625 uM, replicates, read-out: pACGAG formation, % inhibition",95.3%
same,"pACG formation, % inhibition",[7],94.1%
same,"pACGAG formation, % inhibition",[7],96.5623%
same,inhibition at 0.125 µM,"tr-14, +1 site, 0.125 uM, replicates, read-out: pACG formation, % inhibition",95.7%
same,inhibition at 0.125 µM,"tr-14, +1 site, 0.125 uM, replicates, read-out: pACGA formation, % inhibition",18.9%
same,inhibition at 0.125 µM,"tr-14, +1 site, 0.125 uM, replicates, read-out: pACGAG formation, % inhibition",95.9%
same,"pACG formation, % inhibition",[8],94.4%
same,"pACGAG formation, % inhibition",[8],96.9953%
same,inhibition at 0.25 µM,"tr-14, +1 site, 0.25 uM, replicates, read-out: pACG formation, % inhibition",95.3%
same,inhibition at 0.25 µM,"tr-14, +1 site, 0.25 uM, replicates, read-out: pACGA formation, % inhibition",21.3%
same,inhibition at 0.25 µM,"tr-14, +1 site, 0.25 uM, replicates, read-out: pACGAG formation, % inhibition",96.3%
same,"pACG formation, % inhibition",[9],93.2%
same,"pACGAG formation, % inhibition",[9],97.0094%
same,inhibition at 0.5 µM,"tr-14, +1 site, 0.5 uM, replicates, read-out: pACG formation, % inhibition",93.9%
same,inhibition at 0.5 µM,"tr-14, +1 site, 0.5 uM, replicates, read-out: pACGAG formation, % inhibition",95.7%
same,"pACG formation, % inhibition",[10],91.9%
same,"pACGAG formation, % inhibition",[10],97.3064%
same,inhibition at 1 µM,"tr-14, +1 site, 1 uM, replicates, read-out: pACG formation, % inhibition",92.2%
same,inhibition at 1 µM,"tr-14, +1 site, 1 uM, replicates, read-out: pACGA formation, % inhibition",39%
same,inhibition at 1 µM,"tr-14, +1 site, 1 uM, replicates, read-out: pACGAG formation, % inhibition",97%
